# Results: ChEMBL document CHEMBL1909046, “DrugMatrix in vitro pharmacology data”
# Tests used:
# [1] = target: Sodium-dependent noradrenaline transporter (Homo sapiens, UniProt P23975); assay: DRUGMATRIX: Norepinephrine Transporter radioligand binding (ligand: [125I] RTI-55); format: cell membranes, MDCK, Membrane; conditions: Not Active = under 50% inhibition at 10 µM
# [2] = DRUGMATRIX: beta-Lactamase enzyme inhibition (substrate: Nitrocefin); design: species or system Bacillus cereus; conditions: Not Active = under 50% inhibition at 10 µM
# [3] = target: 5-hydroxytryptamine receptor 4 (Cavia porcellus, UniProt O70528); format: cell membranes, Dunkin-Hartley, Striatum, Membrane; also: in other assays of this panel Not Active means under 50% inhibition at 10 µM
# Substance-K receptor = target: T1, Substance-K receptor (Homo sapiens, UniProt P21452); format: cell membranes, CHO, Membrane; also: in other assays of this panel Not Active means under 50% inhibition at 10 µM
# T1 sequence (P21452 whole entry): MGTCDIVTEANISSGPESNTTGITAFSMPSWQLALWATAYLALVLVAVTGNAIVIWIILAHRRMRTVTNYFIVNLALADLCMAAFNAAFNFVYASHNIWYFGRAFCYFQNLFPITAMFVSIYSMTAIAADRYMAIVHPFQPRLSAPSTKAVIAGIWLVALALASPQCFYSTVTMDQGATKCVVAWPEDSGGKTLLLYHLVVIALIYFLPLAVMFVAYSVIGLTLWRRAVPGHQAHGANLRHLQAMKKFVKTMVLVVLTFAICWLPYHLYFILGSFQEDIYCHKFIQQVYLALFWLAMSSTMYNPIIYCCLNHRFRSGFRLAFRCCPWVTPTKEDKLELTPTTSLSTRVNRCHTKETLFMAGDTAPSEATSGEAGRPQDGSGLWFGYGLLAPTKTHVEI
# [4] = DRUGMATRIX: Glutamate, Kainate radioligand binding (ligand: [3H] Kainic acid); format: cell membranes, Rattus norvegicus, Wistar, Brain, Membrane; conditions: Not Active = under 50% inhibition at 10 µM
# [5] = target: T2, Angiotensin-converting enzyme (Oryctolagus cuniculus, UniProt P12822); format: tissue-based, Lung;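 also: enzymatic inhibition of angiotensin-converting enzyme measured with FAPGG as the substrate; in other assays of this panel Not Active means under 50% inhibition at 10 µM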
# T2 sequence (P12822 whole entry): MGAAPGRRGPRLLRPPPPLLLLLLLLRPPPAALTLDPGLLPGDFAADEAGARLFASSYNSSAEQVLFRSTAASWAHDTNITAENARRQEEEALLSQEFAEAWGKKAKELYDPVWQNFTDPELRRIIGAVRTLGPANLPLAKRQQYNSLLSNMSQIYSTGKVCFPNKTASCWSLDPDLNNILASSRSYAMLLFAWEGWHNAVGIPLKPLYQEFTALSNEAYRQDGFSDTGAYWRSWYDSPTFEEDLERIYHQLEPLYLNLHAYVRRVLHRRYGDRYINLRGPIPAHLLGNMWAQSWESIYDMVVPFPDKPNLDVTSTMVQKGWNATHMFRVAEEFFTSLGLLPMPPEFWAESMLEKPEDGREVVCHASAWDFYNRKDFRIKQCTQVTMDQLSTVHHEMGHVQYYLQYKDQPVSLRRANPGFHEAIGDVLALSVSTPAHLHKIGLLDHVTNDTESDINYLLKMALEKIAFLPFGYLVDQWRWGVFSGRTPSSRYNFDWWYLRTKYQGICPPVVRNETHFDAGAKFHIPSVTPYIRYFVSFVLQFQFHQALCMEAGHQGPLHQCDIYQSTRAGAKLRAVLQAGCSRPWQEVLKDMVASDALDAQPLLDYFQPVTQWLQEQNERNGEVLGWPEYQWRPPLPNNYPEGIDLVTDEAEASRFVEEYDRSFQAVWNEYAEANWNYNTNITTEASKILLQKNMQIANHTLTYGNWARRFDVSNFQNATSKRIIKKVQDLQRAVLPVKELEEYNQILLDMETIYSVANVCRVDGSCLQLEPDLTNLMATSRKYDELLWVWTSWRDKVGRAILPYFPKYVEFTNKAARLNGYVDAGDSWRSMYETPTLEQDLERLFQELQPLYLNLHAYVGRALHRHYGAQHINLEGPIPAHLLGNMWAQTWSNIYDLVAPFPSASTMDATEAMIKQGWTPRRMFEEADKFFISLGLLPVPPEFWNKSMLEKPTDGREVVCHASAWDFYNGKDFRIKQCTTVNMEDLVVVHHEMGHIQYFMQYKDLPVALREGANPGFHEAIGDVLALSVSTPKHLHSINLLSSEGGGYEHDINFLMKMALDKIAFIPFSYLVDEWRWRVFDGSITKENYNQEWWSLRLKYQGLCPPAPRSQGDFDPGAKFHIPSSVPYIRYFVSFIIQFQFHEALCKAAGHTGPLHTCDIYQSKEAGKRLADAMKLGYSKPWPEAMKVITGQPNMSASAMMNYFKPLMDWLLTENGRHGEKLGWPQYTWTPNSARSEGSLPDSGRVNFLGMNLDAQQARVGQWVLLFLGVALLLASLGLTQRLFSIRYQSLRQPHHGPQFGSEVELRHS
# Chain of 5-hydroxytryptamine receptor 4 (O70528 whole entry): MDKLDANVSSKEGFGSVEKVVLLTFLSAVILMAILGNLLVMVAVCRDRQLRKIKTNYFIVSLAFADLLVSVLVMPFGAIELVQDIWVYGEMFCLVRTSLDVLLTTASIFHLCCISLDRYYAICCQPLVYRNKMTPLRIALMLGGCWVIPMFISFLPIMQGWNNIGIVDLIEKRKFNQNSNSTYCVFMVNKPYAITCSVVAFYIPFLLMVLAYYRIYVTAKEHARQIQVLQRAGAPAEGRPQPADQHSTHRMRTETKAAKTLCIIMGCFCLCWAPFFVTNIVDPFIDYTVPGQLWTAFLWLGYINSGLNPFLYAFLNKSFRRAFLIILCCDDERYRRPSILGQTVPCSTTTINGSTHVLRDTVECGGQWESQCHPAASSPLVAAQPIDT
# Chain of Sodium-dependent noradrenaline transporter (P23975 whole entry): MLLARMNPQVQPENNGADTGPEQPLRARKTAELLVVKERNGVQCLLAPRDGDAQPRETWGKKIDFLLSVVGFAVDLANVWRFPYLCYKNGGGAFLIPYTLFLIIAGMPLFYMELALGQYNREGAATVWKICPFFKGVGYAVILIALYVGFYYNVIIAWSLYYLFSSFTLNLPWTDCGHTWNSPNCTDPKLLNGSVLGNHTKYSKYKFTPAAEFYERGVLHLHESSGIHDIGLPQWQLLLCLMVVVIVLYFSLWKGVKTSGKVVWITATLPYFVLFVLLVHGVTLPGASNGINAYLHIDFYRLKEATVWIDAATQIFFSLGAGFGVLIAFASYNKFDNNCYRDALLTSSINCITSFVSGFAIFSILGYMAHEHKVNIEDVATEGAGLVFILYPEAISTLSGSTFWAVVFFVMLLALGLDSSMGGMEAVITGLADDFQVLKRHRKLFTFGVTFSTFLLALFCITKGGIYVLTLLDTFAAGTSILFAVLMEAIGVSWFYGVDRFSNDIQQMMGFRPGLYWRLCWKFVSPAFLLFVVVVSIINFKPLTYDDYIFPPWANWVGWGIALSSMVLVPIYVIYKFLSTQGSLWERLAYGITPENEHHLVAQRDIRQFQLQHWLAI
SMILES,IC50 ([1]; mdck),IC50 [2],Ki [2],IC50 [3],IC50 (Substance-K receptor; cho),IC50 [4],Ki [4],IC50 [5],IC50 ([1]; read-out: IC50) [µM],Ki ([1]; read-out: Ki) [µM],IC50 (Substance-K receptor; read-out: IC50) [µM],Ki (Substance-K receptor; read-out: Ki) [µM]
CN(CCOc1ccc(CC2SC(=O)NC2=O)cc1)c1ccccn1 (stereo not given) [ROSIGLITAZONE],Not Active,Not Active,Not Active,Not Active,Not Active,Not Active,Not Active,Not Active,,,,
C=C(C)[C@H]1Cc2c(ccc3c2O[C@@H]2COc4cc(OC)c(OC)cc4[C@@H]2C3=O)O1 [ROTENONE],Not Active,Not Active,Not Active,Not Active,Not Active,Not Active,Not Active,Not Active,,,,
Nc1ccc(S(=O)(=O)Nc2nccs2)cc1 [SULFATHIAZOLE],Not Active,Not Active,Not Active,Not Active,Not Active,Not Active,Not Active,Not Active,,,,
OCCN1CCN(CCCN2c3ccccc3Sc3ccc(C(F)(F)F)cc32)CC1 [FLUPHENAZINE],,,,Not Active,,,,Not Active,1.96,1.95,22.5,7.49
COc1ccc(CN2CCNCC2)c(OC)c1OC [TRIMETAZIDINE],Not Active,Not Active,Not Active,Not Active,Not Active,Not Active,Not Active,Not Active,,,,
CC[C@@H](CO)NC(=O)[C@@H]1C=C2c3cccc4c3c(cn4C)C[C@H]2N(C)C1 [METHYSERGIDE],Not Active,,,Not Active,Not Active,,,Not Active,,,,
COc1cc(C(=O)NS(=O)(=O)c2ccccc2C)ccc1Cc1cn(C)c2ccc(NC(=O)OC3CCCC3)cc12 [ZAFIRLUKAST],Not Active,Not Active,Not Active,Not Active,Not Active,Not Active,Not Active,Not Active,,,,
CCCc1nn(C)c2c(=O)[nH]c(-c3cc(S(=O)(=O)N4CCN(C)CC4)ccc3OCC)nc12,Not Active,Not Active,Not Active,Not Active,Not Active,Not Active,Not Active,Not Active,,,,
CN[C@@H]1[C@H](O)[C@H](NC)[C@H]2O[C@@]3(O)C(=O)C[C@@H](C)O[C@H]3O[C@@H]2[C@H]1O [SPECTINOMYCIN],Not Active,Not Active,Not Active,Not Active,Not Active,Not Active,Not Active,Not Active,,,,
CC(=O)Nc1nnc(S(N)(=O)=O)s1 [ACETAZOLAMIDE],Not Active,,,Not Active,Not Active,,,Not Active,,,,
CCN(CC)CC#CCOC(=O)C(O)(c1ccccc1)C1CCCCC1 (stereo not given) [OXYBUTYNIN],,,,Not Active,Not Active,,,Not Active,,,,
O=c1[nH]c2ccccc2n1CCCN1CCC(n2c(=O)[nH]c3cc(Cl)ccc32)CC1 [DOMPERIDONE],,,,Not Active,Not Active,,,Not Active,,,,
O=c1n(CCCN2CCN(c3cccc(Cl)c3)CC2)nc2ccccn12 [TRAZODONE],Not Active,,,Not Active,Not Active,,,Not Active,,,,
